Consider 4 molecules from paper PMC12645998, “Optimization of VE607 to generate analogs with improved neutralization activities against SARS-CoV-2 variants” (Journal of Virology, 2025).

The test system of assay [1] is SARS CoV-2 D614G Spike pseudovirus. It is filed as cell-based.
The target of assay [2] is SARS-CoV-2 spike HPM7 (Severe acute respiratory syndrome coronavirus 2, UniProt P0DTC2, A892P/A899P/A942P/F817P/K986P/R682G/R683S/R685S/T883C/V705C/V987P).

SMILES strings stand for the structures.

The IC50 is the concentration that gives 50% inhibition. The low end stands for higher potency, the high end for lower potency. In the case of `O[C@@H](COc1cccc(OC[C@H](O)CN2CCCCC2)c1)CN1CCCCC1` [(R,R)-VE607, reference compound], in assay [1], the IC50 was 660 nM.
In the case of `CN(C)C[C@@H](O)COc1cc(Br)cc(OC[C@H](O)CN(C)C)c1` [Compound 27], in assay [1], half-maximal inhibition (IC50) required 780 nM. In assay [2], the “Particles in closed conformation (3 RBD down)” value is given as 16.9% and the “Particles in open conformation (1 RBD up)” value came to 68.0%.
In assay [1], `CN1CCN(C[C@@H](O)COc2cc(Br)cc(OC[C@H](O)CN3CCN(C)CC3)c2)CC1` [Compound 30] came in with an IC50 of 1310 nM.
Consider `CCN(C)C[C@@H](O)COc1cc(Br)cc(OC[C@H](O)CN(C)CC)c1` [Compound 33], for which inhibition in assay [1] was half-maximal at 1150 nM (IC50).
